Assay results from ChEMBL document CHEMBL4152235, “Synthesis, anionophoric activity and apoptosis-inducing bioactivity of benzimidazolyl-based transmembrane anion transporters” (Eur J Med Chem, 2018).
Calls of active or inactive are those of the source. The rule behind the calls is not given here.

What was measured:
HeLa [1] = experiment: Cytotoxicity against human HeLa cells assessed as reduction in cell viability after 48 hrs by MTT assay; format: functional, cell-based
[2] = Ionophoric activity across lucigenin probe encapsulated pH 7 egg yolk L-alpha-phosphatidylcholine-based large unilamellar vesicles loaded with Na2SO4 assessed as chloride ion efflux at 7.81 x 10^-3mol% after 20 mins in presence of NaCl loaded external vesicles by fluorescence method
[3] = (§1) Ionophoric activity across pyranine dye encapsulated pH 7 egg yolk L-alpha-phosphatidylcholine-based liposomal membranes assessed as chloride ion transport by measuring initial rate constant for induction of pH discharge at 4.88 x 10^-4 mol% after 20 mins in presence of NaCl loaded external vesicles by fluorescence method (reference value: 5.03 +/- 1.02 10^-3/min)
HeLa [4] = experiment: Ionophoric activity across human HeLa cells assessed as chloride ion efflux up to 10 uM after 2 hrs by MQAE dye based fluorescence assay; format: cell-based
HeLa [5] = experiment: Cytotoxicity against human HeLa cells assessed as reduction in cell viability up to 10 uM after 12 hrs in absence of chloride by MTT assay; format: functional, cell-based
[6] = Ionophoric activity across pyranine dye encapsulated pH 7 egg yolk L-alpha-phosphatidylcholine-based liposomal membranes assessed as chloride ion transport by measuring induction of pH discharge at 1.95 x 10^-3 mol% after 20 mins in presence of CsCl loaded external vesicles by fluorescence method
A549 [7] = experiment: Cytotoxicity against human A549 cells assessed as reduction in cell viability after 48 hrs by MTT assay; format: functional, cell-based; conditions: A549, 48 h
[8] = Ionophoric activity across pyranine dye encapsulated pH 7 egg yolk L-alpha-phosphatidylcholine-based liposomal membranes assessed as chloride ion transport by measuring induction of pH discharge at 1.95 x 10^-3 mol% after 20 mins in presence of RbCl loaded external vesicles by fluorescence method
L02 = experiment: Cytotoxicity against human LO2 cells assessed as reduction in cell viability after 48 hrs by MTT assay; format: cell-based; conditions: L02, 48 h
MCF7 [9] = experiment: Cytotoxicity against human MCF7 cells assessed as reduction in cell viability at 50 uM after 48 hrs by MTT assay relative to control; format: functional; conditions: MCF7, 48 h
[10] = Ionophoric activity across pyranine dye encapsulated pH 7 egg yolk L-alpha-phosphatidylcholine-based liposomal membranes assessed as bromide ion transport by measuring induction of pH discharge at 1.95 x 10^-3 mol% after 20 mins in presence of NaBr loaded external vesicles by fluorescence method
HeLa [11] = experiment: Cytotoxicity against human HeLa cells assessed as reduction in cell viability at 50 uM after 48 hrs by MTT assay relative to control; format: functional
HeLa [12] = experiment: Induction of apoptosis in human HeLa cells assessed as chromatin condensation at 2.5 uM after 24 hrs by Hoechst 33342 staining based fluorescence microscopic analysis; format: functional, cell-based
[13] = as §1, with “9.77” for “4.88”
MCF7 [14] = experiment: Ionophoric activity across human MCF7 cells assessed as chloride ion efflux up to 10 uM after 2 hrs by MQAE dye based fluorescence assay; format: cell-based
[15] = Ionophoric activity across pyranine dye encapsulated pH 7 egg yolk L-alpha-phosphatidylcholine-based liposomal membranes assessed as chloride ion transport by measuring induction of pH discharge at 1.95 x 10^-3 mol% after 20 mins in presence of NaCl loaded external vesicles by fluorescence method
HeLa [16] = experiment: Disruption of mitochondrial membrane potential in human HeLa cells assessed as decrease in ratio of red to green fluorescence at 5 to 10 uM after 24 hrs by JC1 staining based fluorescence microscopic analysis; format: functional, cell-based
[17] = Ionophoric activity across pyranine dye encapsulated pH 7 egg yolk L-alpha-phosphatidylcholine-based liposomal membranes assessed as chloride ion transport by measuring induction of pH discharge at 1.95 x 10^-3 mol% after 20 mins in presence of KCl loaded external vesicles by fluorescence method
MCF7 [18] = experiment: Cytotoxicity against human MCF7 cells assessed as reduction in cell viability after 48 hrs by MTT assay; format: functional, cell-based; conditions: MCF7, 48 h
[19] = Binding affinity to chloride ion assessed as 1:1 compound-Cl- complex formation at 4.1 mM using tetra(n-butyl)ammonium chloride by ESI MS spectrometric method
[20] = as §1, with “1.95” for “4.88”, “10^-3” for “10^-4”
HepG2 [21] = experiment: Cytotoxicity against human HepG2 cells assessed as reduction in cell viability at 50 uM after 48 hrs by MTT assay relative to control; format: functional; conditions: HepG2, 48 h
HeLa [22] = experiment: Cytotoxicity against human HeLa cells assessed as reduction in cell viability up to 10 uM after 12 hrs in presence of chloride by MTT assay; format: functional, cell-based
[23] = Ionophoric activity across pyranine dye encapsulated pH 7 egg yolk L-alpha-phosphatidylcholine-based liposomal membranes assessed as chloride ion transport by measuring induction of pH discharge after 20 mins in presence of NaCl loaded external vesicles by fluorescence method
MCF7 [24] = experiment: Cytotoxicity against human MCF7 cells assessed as reduction in cell viability up to 10 uM after 12 hrs in absence of chloride by MTT assay; format: functional, cell-based
[25] = as §1, with “7.81” for “4.88”, “10^-3” for “10^-4”
[26] = Ionophoric activity across pyranine dye encapsulated pH 7 egg yolk L-alpha-phosphatidylcholine-based liposomal membranes assessed as chloride ion transport by measuring induction of pH discharge at 1.95 x 10^-3 mol% after 20 mins in presence of LiCl loaded external vesicles by fluorescence method
[27] = Ionophoric activity across pyranine dye encapsulated pH 7 egg yolk L-alpha-phosphatidylcholine-based liposomal membranes assessed as iodide ion transport by measuring induction of pH discharge at 1.95 x 10^-3 mol% after 20 mins in presence of NaI loaded external vesicles by fluorescence method
[28] = Ionophoric activity across lucigenin probe encapsulated pH 7 egg yolk L-alpha-phosphatidylcholine-based large unilamellar vesicles loaded with Na2SO4 assessed as chloride ion efflux at 7.81 x 10^-3mol% after 20 mins in presence of NaCl/Na2SO4 loaded external vesicles by fluorescence method
MCF7 [29] = experiment: Cytotoxicity against human MCF7 cells assessed as reduction in cell viability up to 10 uM after 12 hrs in presence of chloride by MTT assay; format: functional, cell-based
HepG2 [30] = experiment: Cytotoxicity against human HepG2 cells assessed as reduction in cell viability after 48 hrs by MTT assay; format: functional, cell-based; conditions: HepG2, 48 h
[31] = Ionophoric activity across pyranine dye encapsulated pH 7 egg yolk L-alpha-phosphatidylcholine-based liposomal membranes assessed as nitrate ion transport by measuring induction of pH discharge at 1.95 x 10^-3 mol% after 20 mins in presence of NaNO3 loaded external vesicles by fluorescence method
HeLa [32] = experiment: Ionophoric activity across human HeLa cells assessed as chloride ion efflux at 10 uM after 3 hrs by acridine orange staining based fluorescence microscopic analysis; format: cell-based
[33] = as §1, with “3.91” for “4.88”, “10^-3” for “10^-4”
A549 [34] = experiment: Cytotoxicity against human A549 cells assessed as reduction in cell viability at 50 uM after 48 hrs by MTT assay relative to control; format: functional; conditions: A549, 48 h
HeLa [35] = experiment: Induction of apoptosis in human HeLa cells assessed as chromatin fragmentation at 2.5 uM after 24 hrs by Hoechst 33342 staining based fluorescence microscopic analysis; format: functional, cell-based
HeLa [36] = experiment: Induction of apoptosis in human HeLa cells assessed as formation of bean shaped nuclei at 2.5 uM after 24 hrs by Hoechst 33342 staining based fluorescence microscopic analysis; format: functional, cell-based
[37] = Binding affinity to chloride ion at 1.5 x 10^-5M using tetra(n-butyl)ammonium chloride measured after 5 mins by spectrophotometric titration method
HeLa [38] = experiment: Induction of apoptosis in human HeLa cells assessed as formation of apoptotic bodies at 2.5 uM after 24 hrs by Hoechst 33342 staining based fluorescence microscopic analysis; format: functional, cell-based
[39] = Ionophoric activity across pyranine dye encapsulated pH 7 POPC-cholesterol-based liposomal membranes assessed as chloride ion transport by measuring induction of pH discharge at 7.81 x 10^-3mol% after 20 mins in presence of NaCl loaded external vesicles by fluorescence method
[40] = Ionophoric activity across pyranine dye encapsulated pH 7 egg yolk L-alpha-phosphatidylcholine-based liposomal membranes assessed as chloride ion transport by measuring induction of pH discharge after 20 mins in presence of NaCl loaded external vesicles by fluorescence method relative to m-Bimbe

In the case of `O=[N+]([O-])c1cc(-c2nc3ccc(C(F)(F)F)cc3[nH]2)cc(-c2nc3ccc(C(F)(F)F)cc3[nH]2)c1`, the IC50 (HeLa [1]) is reported as 1900 nM, the Activity [2] is reported as “inactive” and the K [3] is reported as 2.11 ×10⁻² /min. The Activity (HeLa [4]) was “Active”, the Activity (HeLa [5]) was “Active” and the Activity [6] was “Active”. For the same compound, the IC50 (A549 [7]) was 3.8 to 3.9 µM, the Activity [8] was “Active” and the IC50 (L02) was 3.7 µM. For the same compound, the inhibition at 50 µM (MCF7 [9]) was 99.2%, the Activity [10] was “inactive” and the inhibition at 50 µM (HeLa [11]) was 94.9%. The Activity (HeLa [12]) was “Active”, the K [13] was 4.08 ×10⁻² /min and the Activity (MCF7 [14]) was “Active”. For the same compound, the Activity [15] was “Active”, the Activity (HeLa [16]) was “Active” and the Activity [17] was “Active”. For the same compound, the IC50 (MCF7 [18]) was 9.4 to 9.7 µM, the Activity [19] was “Active” and the K [20] was 8.14 ×10⁻² /min. For the same compound, the inhibition at 50 µM (HepG2 [21]) was 101%, the Activity (HeLa [22]) was “Active” and the EC50 [23] was 3.76 ×10⁻³ mol%. For the same compound, the EC50 ([23]; read-out: EC50) was 50 nM, the Activity (MCF7 [24]) was “Active” and the K [25] was 1.87 ×10⁻¹ /min. For the same compound, the Activity [26] was “Active”, the Activity [27] was “inactive” and the Activity [28] was “inactive”. For the same compound, the Activity (MCF7 [29]) was “Active”, the IC50 (HepG2 [30]) was 4.1 µM and the Activity [31] was “inactive”. The Activity (HeLa [32]) was “Active”, the K [33] was 1.33 ×10⁻¹ /min and the inhibition at 50 µM (A549 [34]) was 100%. The Activity (HeLa [35]) was “Active”, the Activity (HeLa [36]) was “Active” and the Ka [37] was 7.53 ×10³ /M. For the same compound, the Activity (HeLa [38]) was “Active”, the Activity [39] was “inactive” and the fold change (FC) [40] was 1720.
